pIC50: −log10 of the molar value.
Experiments:
WT EGFR = WT EGFR (Homo sapiens (Human), UniProt P00533); experiment: Immunoblot of EGFR degradation in OVCAR8 cells; assay type: cell-based; conditions: 24 hours
Protocol: (§1) Cells were treated with the indicated concentrations of PROTAC or corresponding inhibiting diastereomer for the specified time and then harvested in lysis buffer (25 mM Tris.HCl pH 7.5 with 1% NP-40 and 0.25% deoxycholate, supplemented with 10 mM sodium pyrophosphate, 20 mM ß-glycerophosphate, 10 mM sodium fluoride, 1 mM sodium orthovanadate, 0.1 mM phenylarsine oxide, 10 μg/ml leupeptin, 10 μg/ml pepstatin A, 30 μg/ml bestatin, 0.3 trypsin inhibitor units/ml aprotinin and 1 mM PMSF). Following centrifugation at 16,000×g for 10 min at 4° C. to pellet insoluble materials, the protein concentrations of the supernatants were quantitated by BCA assay (Thermo Fisher Scientific). Protein samples were resolved by 8% SDS-PAGE, electrophoretically transferred to nitrocellulose and probed with the antibodies listed above. Immunoblots were developed using enhanced chemiluminescence and visualized using a Bio-Rad Chemi-Doc MP Imaging System and quantitated with Image Lab v.5.2.1 software (Bio-Rad Laboratories).

exon-19 deletion EGFR = exon-19 deletion EGFR (Homo sapiens (Human), UniProt P00533, DEL746-750); experiment: Immunoblot of EGFR degradation in HCC827 cells; assay type: cell-based; conditions: 24 hours
Protocol: as §1

L858R EGFR = L858R EGFR (Homo sapiens (Human), UniProt P00533, L858R); experiment: Immunoblot of EGFR degradation in H3255 cells; assay type: cell-based; conditions: 24 hours
Protocol: as §1

HER2 InsYVMA = HER2 InsYVMA (Homo sapiens (Human), UniProt P04626, INS775YVMA); experiment: TR-FRET assay for ERBB kinases; assay type: biochemical; conditions: geometric mean if measured more than once
Chain of HER2 InsYVMA (P04626 other isoform, or with tags, fused parts or gaps del 1-675/ins YVMA behind 775 limits assumed): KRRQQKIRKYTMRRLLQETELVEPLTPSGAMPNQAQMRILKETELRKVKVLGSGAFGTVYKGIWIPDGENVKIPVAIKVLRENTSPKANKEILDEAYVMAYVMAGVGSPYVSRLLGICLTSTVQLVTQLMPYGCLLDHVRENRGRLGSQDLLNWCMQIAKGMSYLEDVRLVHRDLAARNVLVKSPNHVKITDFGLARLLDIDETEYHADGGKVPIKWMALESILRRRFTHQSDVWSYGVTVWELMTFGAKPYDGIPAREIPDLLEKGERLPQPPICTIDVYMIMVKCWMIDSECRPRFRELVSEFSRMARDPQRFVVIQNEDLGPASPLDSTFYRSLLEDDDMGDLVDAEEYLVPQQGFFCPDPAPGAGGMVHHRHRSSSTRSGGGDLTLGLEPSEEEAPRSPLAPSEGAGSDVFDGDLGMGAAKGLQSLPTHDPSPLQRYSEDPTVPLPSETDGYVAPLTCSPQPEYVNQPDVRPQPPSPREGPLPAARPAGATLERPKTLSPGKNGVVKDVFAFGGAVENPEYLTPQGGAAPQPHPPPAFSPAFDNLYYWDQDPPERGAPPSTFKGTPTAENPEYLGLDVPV
Protocol: TR-FRET Assay for ERBB Kinases
All compounds and PROTACs were serially diluted in three-fold increments using 100% DMSO, followed by an intermediate 10-fold dilution using Buffer A (50 mM HEPES, pH 7.5, 50 mM NaCl, 10 mM MgCl2, 1 mM DTT, and 0.1% Pluronic F-68). Two microliters of serially diluted compound or PROTAC were then transferred to black 384-well Proxiplates (PerkinElmer, #6008260) using an Integra Viaflo96. Next, 10 uL of protein kinase in Buffer A was added to each well of the assay plate and pre-incubated with compound for 10 minutes. Kinase reactions were then initiated by addition of 5 uL substrate mix containing 3 mM ATP and 30 uM fluorescein-labeled Poly-GluTyr (Thermo Fisher, #PV3610) in Buffer A and allowed to proceed for 10 minutes at room temperature. Reactions were quenched by addition of a 5 uL mixture containing 5 nM LanthaScreen® Tb-pY20 Antibody (Thermo Fisher, #PV3552) and 40 mM EDTA in Buffer A. Assay plates were then read using a Synergy2 (Biotek Instruments, Winooski, Vt.) via excitation thru a 340/20 nm bandpass filter and emission collected thru 490/10 nm (donor) and 520/25 nm (acceptor) bandpass filters. The final kinase concentrations used for each 15 uL reaction were as follows: 0.2 nM EGFR Exon20NPG (SignalChem, #E10-132GG), 0.1 nM wild type EGFR (BPS Bioscience, #40187), 0.3 nM EGFR L858R/T790M/C797S (BPS Bioscience, #40351), 0.1 nM EGFR L858R (BPS Bioscience, #40189), 0.4 nM L858R/T790M (BPS Bioscience, #40350), InM EGFR Dell9 (SignalChem, #E10-122JG), 10 nM EGFR Dell9 T790M (SignalChem, #E10-122KG), 0.3 nM Her2 (BPS Bioscience, #40230), 15 nM Her2 InsYVMA (SignalChem, #E27-13BG).

EGFR L858R = EGFR L858R (Homo sapiens (Human), UniProt P00533, L858R); experiment: TR-FRET assay for ERBB kinases; assay type: biochemical; conditions: geometric mean if measured more than once
Procedure, shortened: (§2)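 Compounds pre-incubated 10 min with kinase in HEPES pH 7.5 buffer (MgCl2, DTT, Pluronic), then reaction started with substrate mix (3 mM ATP, 30 µM fluorescein-poly-GluTyr, stock levels) for 10 min at room temperature. EDTA-quenched, detected by Tb-pY20 antibody TR-FRET (520/490 nm emission).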

EGFR Δ19/746/750 T790M = EGFR Δ19/746/750 T790M (Homo sapiens (Human), UniProt P00533, DEL746-750/T790M); experiment: TR-FRET assay for ERBB kinases; assay type: biochemical; conditions: geometric mean if measured more than once
Procedure, shortened: as §2

HER2WT = HER2WT (Homo sapiens (Human), UniProt P04626); experiment: TR-FRET assay for ERBB kinases; assay type: biochemical; conditions: geometric mean if measured more than once
Chain of HER2WT (P04626 23-1255): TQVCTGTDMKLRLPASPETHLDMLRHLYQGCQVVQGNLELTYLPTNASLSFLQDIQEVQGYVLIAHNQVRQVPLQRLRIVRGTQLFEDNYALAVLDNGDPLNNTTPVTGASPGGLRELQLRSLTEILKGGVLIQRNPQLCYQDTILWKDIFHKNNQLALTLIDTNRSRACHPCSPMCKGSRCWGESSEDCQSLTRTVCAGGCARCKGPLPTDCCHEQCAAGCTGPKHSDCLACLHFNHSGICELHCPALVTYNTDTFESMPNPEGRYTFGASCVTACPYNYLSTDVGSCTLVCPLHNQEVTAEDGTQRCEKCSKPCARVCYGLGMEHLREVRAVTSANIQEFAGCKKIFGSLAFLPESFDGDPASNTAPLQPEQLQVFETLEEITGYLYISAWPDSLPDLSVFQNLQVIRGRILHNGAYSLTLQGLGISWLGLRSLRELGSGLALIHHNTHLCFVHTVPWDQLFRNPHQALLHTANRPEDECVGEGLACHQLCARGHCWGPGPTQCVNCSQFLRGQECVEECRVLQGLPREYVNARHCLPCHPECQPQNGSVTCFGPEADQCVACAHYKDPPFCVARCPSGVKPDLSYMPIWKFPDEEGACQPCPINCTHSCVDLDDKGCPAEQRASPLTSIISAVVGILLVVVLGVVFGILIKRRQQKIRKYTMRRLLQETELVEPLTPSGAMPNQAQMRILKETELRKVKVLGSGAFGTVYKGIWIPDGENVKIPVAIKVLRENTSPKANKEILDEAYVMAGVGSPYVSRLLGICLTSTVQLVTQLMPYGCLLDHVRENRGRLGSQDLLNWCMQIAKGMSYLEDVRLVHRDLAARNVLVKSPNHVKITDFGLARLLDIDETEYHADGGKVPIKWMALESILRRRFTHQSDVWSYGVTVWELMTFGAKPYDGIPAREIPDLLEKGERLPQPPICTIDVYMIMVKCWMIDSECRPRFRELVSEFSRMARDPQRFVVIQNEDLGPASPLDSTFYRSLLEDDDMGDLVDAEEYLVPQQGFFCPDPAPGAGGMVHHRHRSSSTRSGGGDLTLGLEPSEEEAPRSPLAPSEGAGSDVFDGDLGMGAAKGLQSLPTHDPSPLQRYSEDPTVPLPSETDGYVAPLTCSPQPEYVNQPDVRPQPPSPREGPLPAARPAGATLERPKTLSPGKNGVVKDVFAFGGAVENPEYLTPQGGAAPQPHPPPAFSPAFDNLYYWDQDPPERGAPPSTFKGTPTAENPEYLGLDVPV
Procedure, shortened: as §2

EGFR Δ19/746/750 = EGFR Δ19/746/750 (Homo sapiens (Human), UniProt P00533, DEL746-750); experiment: TR-FRET assay for ERBB kinases; assay type: biochemical; conditions: geometric mean if measured more than once
Procedure, shortened: as §2

[1] = biological target: EGFR L858R/T790M double mutant (H1975) (Homo sapiens (Human), UniProt P00533, L858R/T790M); experiment: EGFR protein degradation assay (Western blot); assay type: cell-based; conditions: 72 hours, 300 nM to 10 nM
Procedure, shortened: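 Cells carrying the relevant EGFR form were plated at 300,000 cells per well in 6-well plates and left to attach overnight. After washing in ice-cold PBS, cells were lysed in 400 μl lysis buffer with protease inhibitors, scraped, and clarified at 10 000 rpm for 10 minutes. EGFR levels were then assessed by Western blot with tubulin as loading control.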

EGFR L858R/T790M = EGFR L858R/T790M (Homo sapiens (Human), UniProt P00533, L858R/T790M); experiment: TR-FRET assay for ERBB kinases; assay type: biochemical; conditions: geometric mean if measured more than once
Procedure, shortened: (§3)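 Compounds, serially diluted 3-fold in DMSO, were pre-incubated 10 min with kinase in HEPES pH 7.5 buffer with MgCl2 and DTT. Reactions were started with a substrate mix holding 3 mM ATP and 30 uM fluorescein-poly-GluTyr, run 10 min at room temperature, then quenched with Tb-pY20 antibody plus EDTA.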

EGFR L858R/T790M/C797S = EGFR L858R/T790M/C797S (Homo sapiens (Human), UniProt P00533, C797S/L858R/T790M); experiment: TR-FRET assay for ERBB kinases; assay type: biochemical; conditions: geometric mean if measured more than once
Procedure, shortened: as §3

EGFR WT = EGFR WT (Homo sapiens (Human), UniProt P00533); experiment: TR-FRET assay for ERBB kinases; assay type: biochemical; conditions: geometric mean if measured more than once
Procedure, shortened: as §3

EGFR Exon20NPG = EGFR Exon20NPG (Homo sapiens (Human), UniProt P00533, INS770NPG); experiment: TR-FRET assay for ERBB kinases; assay type: biochemical; conditions: geometric mean if measured more than once
Procedure, shortened: as §2

GTL16 cells = experiment: Cell-proliferation assay in GTL16 cells; assay type: cell-based; conditions: Homo sapiens, GTL 16
Protocol: Cell Proliferation Assays
Following PROTAC or diastereomer treatment of cells as indicated, culture medium was supplemented with 330 μg/ml MTS (Promega Corp., Madison, Wis.) and 25 μM phenazine methosulfate (Sigma, St. Louis, Mo.) and incubated at 37° C. Mitochondrial reduction of MTS to the formazan derivative was monitored by measuring the medium's absorbance at 490 nm using a Wallac Victor^2 platereader (Perkin-Elmer Life Sciences, Waltham, Mass.). Data analysis and statistics performed using Prism v7.0 software (GraphPad Software).

AKT phosphorylation = experiment: HGF-driven AKT phosphorylation in MDA-MB-231 cells (immunoblot); assay type: cell-based; conditions: HGF pulse
Protocol: as §1

EGFR-Δ19 (HCC827) = EGFR-Δ19 (HCC827) (Homo sapiens (Human), UniProt P00533, DEL746-750); experiment: EGFR protein degradation assay (Western blot); assay type: cell-based; conditions: 72 hours, 300 nM to 10 nM
[2] = biological target: EGFR-wt (MDA-MB-231 or MCF7 or A549 or OVCAR8) (Homo sapiens (Human), UniProt P00533); experiment: EGFR protein degradation assay (Western blot); assay type: cell-based; conditions: 72 hours, 300 nM to 10 nM
Procedure, shortened: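 Cells carrying the relevant EGFR form were plated at 300,000 per well in 6-well plates and left overnight to attach. For harvest, cells were rinsed once in ice-cold PBS and lysed in 400 μl lysis buffer containing protease inhibitors. Lysates were cleared at 10 000 rpm for 10 minutes and their protein content measured by BCA. Then 10 μg per sample was separated by SDS/PAGE at 165V for 2 hours, and EGFR was detected by ECL on a Chemidoc.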

EGFR Exon 20 ASV (HeLa*) = EGFR Exon 20 ASV (HeLa*) (Homo sapiens (Human), UniProt P00533, DUP767-769); experiment: EGFR protein degradation assay (Western blot); assay type: cell-based; conditions: 72 hours, 300 nM to 10 nM
HER3 = HER3 (Homo sapiens (Human), UniProt P21860); experiment: TR-FRET assay for ERBB kinases; assay type: biochemical; conditions: geometric mean if measured more than once
Chain of HER3 (P21860 20-1342, species assumed): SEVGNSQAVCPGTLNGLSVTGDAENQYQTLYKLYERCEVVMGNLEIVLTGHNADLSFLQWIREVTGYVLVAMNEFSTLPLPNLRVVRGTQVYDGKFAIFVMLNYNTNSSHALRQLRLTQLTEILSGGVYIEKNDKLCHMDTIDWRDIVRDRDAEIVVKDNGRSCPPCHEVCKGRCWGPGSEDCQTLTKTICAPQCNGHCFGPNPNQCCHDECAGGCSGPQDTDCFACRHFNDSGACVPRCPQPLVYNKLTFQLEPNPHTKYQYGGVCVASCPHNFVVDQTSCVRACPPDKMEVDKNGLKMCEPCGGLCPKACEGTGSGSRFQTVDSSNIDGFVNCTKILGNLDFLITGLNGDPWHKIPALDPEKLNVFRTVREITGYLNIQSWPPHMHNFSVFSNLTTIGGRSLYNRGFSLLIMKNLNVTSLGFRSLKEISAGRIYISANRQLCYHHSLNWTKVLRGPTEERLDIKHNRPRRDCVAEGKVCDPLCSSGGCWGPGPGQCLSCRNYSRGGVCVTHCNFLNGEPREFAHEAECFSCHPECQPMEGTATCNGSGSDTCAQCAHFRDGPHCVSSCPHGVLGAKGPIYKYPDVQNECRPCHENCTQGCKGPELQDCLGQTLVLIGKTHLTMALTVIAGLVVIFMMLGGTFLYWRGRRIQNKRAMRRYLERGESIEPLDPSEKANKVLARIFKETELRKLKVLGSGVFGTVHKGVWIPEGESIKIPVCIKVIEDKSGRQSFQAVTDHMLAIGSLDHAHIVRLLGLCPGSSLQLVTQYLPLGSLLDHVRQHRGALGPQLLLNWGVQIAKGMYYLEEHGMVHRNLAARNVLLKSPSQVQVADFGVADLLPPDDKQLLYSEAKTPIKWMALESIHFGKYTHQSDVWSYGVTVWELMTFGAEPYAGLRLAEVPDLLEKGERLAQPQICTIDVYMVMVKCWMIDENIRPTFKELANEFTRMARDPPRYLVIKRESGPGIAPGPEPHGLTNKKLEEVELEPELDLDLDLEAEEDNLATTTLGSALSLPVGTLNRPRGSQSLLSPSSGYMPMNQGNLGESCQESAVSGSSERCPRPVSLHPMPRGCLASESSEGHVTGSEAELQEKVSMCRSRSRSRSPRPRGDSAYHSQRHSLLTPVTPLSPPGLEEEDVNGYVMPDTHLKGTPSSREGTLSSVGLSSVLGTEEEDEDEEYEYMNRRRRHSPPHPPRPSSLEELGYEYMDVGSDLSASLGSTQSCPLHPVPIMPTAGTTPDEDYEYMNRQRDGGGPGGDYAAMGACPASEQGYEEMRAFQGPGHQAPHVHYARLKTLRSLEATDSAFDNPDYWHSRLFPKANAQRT

| Molecule | pIC50 (HER2 InsYVMA) | pIC50 (EGFR L858R) | pIC50 (EGFR Δ19/746/750 T790M) | pIC50 (HER2WT) | pIC50 (EGFR Δ19/746/750) | EGFR protein remaining, EGFR L858R/T790M double mutant [1] | pIC50 (EGFR L858R/T790M) | pIC50 (EGFR L858R/T790M/C797S) | pIC50 (EGFR WT) | other results |
| --- | --- | --- | --- | --- | --- | --- | --- | --- | --- | --- |
| COc1cc2ncnc(Nc3ccc(F)c(Cl)c3)c2cc1OCCCCCOCCOCCC(=O)N[C@H](C(=O)N1C[C@H](O)C[C@H]1C(=O)NCc1ccc(-c2scnc2C)cc1)C(C)(C)C [PROTAC 3] |  |  |  |  |  |  |  |  |  | EGFR degradation (immunoblot) (WT EGFR): sparing the WT EGFR; degradation of exon-19 deletion EGFR (immunoblot) (exon-19 deletion EGFR): enabled the degradation; degradation of L858R EGFR (immunoblot) (L858R EGFR): enabled the degradation |
| COC1CCN(c2nccc(Nc3cc4c(cn3)nc(COCCOCCOCCOc3ccc5c(c3)C(=O)N(C3CCC(=O)NC3=O)C5=O)n4C(C)C)n2)CC1 (stereo not drawn) [Example 70, 2-(2,6-dioxopiperidin-3-yl)-5-(2-(2-(2-((1-isopropyl-6-((2-(4-methoxypiperidin-1-yl)pyrimidin-4-yl)amino)-1H-imidazo[4,5-c]pyridin-2-yl)methoxy)ethoxy)ethoxy)ethoxy)isoindoline-1,3-dione] | 4.72 | < 4.52 | 4.96 | < 4.52 | < 4.52 | C (>80% EGFR protein remaining after 72 hours of incubation with the test compound at a concentration of 300 nM) | 4.82 | 4.80 | < 4.52 |  |
| COC1CCN(c2nccc(Nc3cc4c(cn3)nc(COCCN3CCN(c5ccc6c(c5)C(=O)N(C5CCC(=O)NC5=O)C6=O)CC3)n4C(C)C)n2)CC1 (stereo not drawn) [Example 71, 2-(2,6-dioxopiperidin-3-yl)-5-(4-(2-((1-isopropyl-6-((2-(4-methoxypiperidin-1-yl)pyrimidin-4-yl)amino)-1H-imidazo[4,5-c]pyridin-2-yl)methoxy)ethyl)piperazin-1-yl)isoindoline-1,3-dione] | 4.89 | 4.59 | 5.51 | < 4.52 | < 4.52 | C (>80% EGFR protein remaining after 72 hours of incubation with the test compound at a concentration of 300 nM) | 6.92 | 7.02 | 4.52 | pIC50 (EGFR Exon20NPG): < 4.52 |
| COc1cc2c(Oc3ccc(N(C(=O)C4(C(N)=O)CC4)c4ccc(F)cc4)cc3F)ccnc2cc1OCCCOCCCOCCC(=O)N[C@H](C(=O)N1C[C@@H](O)C[C@H]1C(=O)NCc1ccc(-c2scnc2C)cc1)C(C)(C)C (single isomer, unassigned) [diastereomer 8] |  |  |  |  |  |  |  |  |  | pIC50 (GTL16 cells): 6.81; fold higher concentration than PROTAC 7 required to completely inhibit agonist-driven AKT phosphorylation (AKT phosphorylation): approximately 10 fold |
| COc1cc2ncnc(Nc3ccc(F)c(Cl)c3)c2cc1NC(=O)/C=C/CN(C)CCCOCCCOCC(=O)N[C@H](C(=O)N1CC(O)C[C@@H]1C(=O)NCc1ccc(-c2scnc2C)cc1)C(C)(C)C (stereo partly drawn) [compound 48] |  |  |  |  |  | B (≤80% and >50% EGFR protein remaining after 72 hours of incubation with the test compound at a concentration between 300 nM and 10 nM) | 5.52 | 5.15 | 8.33 | pIC50 (EGFR Exon20NPG): 6.92; EGFR protein remaining, EGFR-Δ19 (EGFR-Δ19 (HCC827)): A (≤50% EGFR protein remaining after 72 hours of incubation with the test compound at a concentration between 300 nM and 10 nM); EGFR protein remaining, EGFR-wt [2]: B (≤80% and >50% EGFR protein remaining after 72 hours of incubation with the test compound at a concentration between 300 nM and 10 nM); EGFR protein remaining, EGFR Exon 20 ASV (EGFR Exon 20 ASV (HeLa*)): C (>80% EGFR protein remaining after 72 hours of incubation with the test compound at a concentration of 300 nM); pIC50 (HER3): 4.70 |
| COC1CCN(c2nccc(Nc3cc4c(cn3)nc(COCCOCCOCC(=O)N[C@H](C(=O)N3C[C@@H](O)C[C@@H]3C(=O)N[C@@H](C)c3ccc(-c5scnc5C)cc3)C(C)(C)C)n4C(C)C)n2)CC1 [compound 73] | 5.47 | 5.01 | 5.17 | < 4.52 | 5.09 | C (>80% EGFR protein remaining after 72 hours of incubation with the test compound at a concentration of 300 nM) | 4.96 | 4.85 | 4.70 |  |
| (2S,4R)-1-((S,E)-2-(tert-butyl)-16-((4-((4-chloro-3-fluorophenyl)amino)-7-methoxyquinazolin-6-yl)amino)-12-methyl-4,16-dioxo-6,9-dioxa-3,12-diazahexadec-14-enoyl)-4-hydroxy-N-(4-(4-methylthiazol-5-yl)benzyl)pyrrolidine-2-carboxamide [Example 41] |  |  |  |  |  | B (≤80% and >50% EGFR protein remaining after 72 hours of incubation with the test compound at a concentration between 300 nM and 10 nM) |  |  |  | EGFR protein remaining, EGFR-Δ19 (EGFR-Δ19 (HCC827)): A (≤50% EGFR protein remaining after 72 hours of incubation with the test compound at a concentration between 300 nM and 10 nM); EGFR protein remaining, EGFR-wt [2]: A (≤50% EGFR protein remaining after 72 hours of incubation with the test compound at a concentration between 300 nM and 10 nM) |

— patent US10994015B2, “EGFR proteolysis targeting chimeric molecules and associated methods of use” (Arvinas Operations, Inc., priority 2016, dated 2021)
